Reference: ChEMBL document CHEMBL1159355, “New dihydrostilbene derivatives from the leaves of Glycyrrhiza glabra and evaluation of their antioxidant activity” (J Nat Prod, 2003)

Experiment: Antioxidant activity against linolenic acid oxidation assessed as inhibition rate constant for conjugated diene hydroperoxide formation
Assay type: functional

| Structure (SMILES) | Activity [×10⁴ /M/s] |
| --- | --- |
| COc1c(O)cc(CCc2cc(O)cc(O)c2)cc1CC=C(C)C | 8 |
| CC(C)=CCc1cc(CCc2cc(O)c(CC=C(C)C)c(O)c2)cc(O)c1O | 11 |
| CC(C)=CCc1cc(CCc2cc(O)cc(O)c2)ccc1O | 6 |
| CC(C)=CCc1cc(CCc2cc(O)cc(O)c2)cc(O)c1O | 9 |
| CC(C)=CCc1cc(CCc2cc(O)c(CC=C(C)C)c(O)c2)ccc1O | 7 |
